ChEMBL document CHEMBL1629680, “Role for Fks1 in the intrinsic echinocandin resistance of Fusarium solani as evidenced by hybrid expression in Saccharomyces cerevisiae” (2009)
≈ marks a conversion by molar mass, not a printed value. *1 amine or outer side, *2 acyl side, *3 side chain or, on linkers, in order; H or OH if unused. Where a SMILES comes first, the peptide text is derived from it. Bridges are numbered along the chain shown (N, C = ends). [ ]: non-standard residue; d: D form. The star is where a group is joined. hTyr(3S-OH,4S-OH,3'-OSO3H) = N[C@H](C(=O)O)[C@H](O)[C@@H](O)c1ccc(O)c(OS(=O)(=O)O)c1; Orn(4R-OH,5R-OH) = O=C([C@H](C[C@@H](O)[C@@H](O)N[*:3])N[*:1])[*:2]; Pro(3S-OH,4S-Me) = C[C@H]1CN[C@H](C(=O)O)[C@H]1O; X1 = CCCCCOc1ccc(-c2cc(-c3ccc(C(=O)*)cc3)no2)cc1; Gln(3R-OH) = NC(=O)C[C@@H](O)[C@H](N)C(=O)O; Hyp = O=C(O)[C@@H]1C[C@@H](O)CN1

Tests used:
Type in all cases: functional
[1] = test system: Saccharomyces cerevisiae; assay: Antimicrobial activity against Saccharomyces cerevisiae BY4742 fks1-F639Y mutant after 24 hrs by broth microdilution assay; settings: BY4742, 24 h
[2] = test system: Saccharomyces cerevisiae; assay: Antimicrobial activity against Saccharomyces cerevisiae BY4742 fks1delta617-649::URA3 deletant after 24 hrs by broth microdilution assay; settings: BY4742, 24 h
[3] = test system: Saccharomyces cerevisiae; assay: Antimicrobial activity against Saccharomyces cerevisiae BY4742 containing Aspergillus fumigatus fks1delta453-649 hybrid after 24 hrs by broth microdilution assay; settings: BY4742, 24 h
[4] = test system: Saccharomyces cerevisiae; assay: Antimicrobial activity against Saccharomyces cerevisiae BY4742 containing Fusarium solani fks1617-649 hybrid after 24 hrs by broth microdilution assay; settings: BY4742, 24 h
[5] = test system: Saccharomyces cerevisiae; assay: Antimicrobial activity against Saccharomyces cerevisiae BY4742 containing Fusarium solani fks1-FS453-649 hybrid after 24 hrs by broth microdilution assay; settings: BY4742, 24 h
[6] = test system: Saccharomyces cerevisiae; assay: Antimicrobial activity against Saccharomyces cerevisiae BY4742 containing Candida glabrata fks1-CgR453-649 hybrid after 24 hrs by broth microdilution assay; settings: BY4742, 24 h
[7] = test system: Saccharomyces cerevisiae; assay: Antimicrobial activity against Saccharomyces cerevisiae BY4742 containing Fusarium solani fks1-FS453-649 with F639 mutant after 24 hrs by broth microdilution assay; settings: BY4742, 24 h
[8] = test system: Saccharomyces cerevisiae; assay: Antimicrobial activity against Saccharomyces cerevisiae BY4742 transfected with Scedosporium prolificans FSK1 gene sequence after 24 hrs by broth microdilution assay; settings: BY4742, 24 h
[9] = test system: Nakaseomyces glabratus; assay: Antimicrobial activity against Candida glabrata containing fsk2-L588P/F639V mutant after 24 hrs by broth microdilution assay
[10] = test system: Saccharomyces cerevisiae; assay: Antimicrobial activity against Saccharomyces cerevisiae BY4742 containing Fusarium solani fks1617-649 with F639 mutant after 24 hrs by broth microdilution assay; settings: BY4742, 24 h
[11] = test system: Saccharomyces cerevisiae; assay: Antimicrobial activity against Saccharomyces cerevisiae BY4742 containing Candida glabrata fks1-CgS453-649 hybrid after 24 hrs by broth microdilution assay; settings: BY4742, 24 h
[12] = test system: Saccharomyces cerevisiae; assay: Antimicrobial activity against Saccharomyces cerevisiae BY4742 fks1-F639F wild type after 24 hrs by broth microdilution assay; settings: BY4742, 24 h
[13] = test system: Saccharomyces cerevisiae; assay: Antimicrobial activity against Saccharomyces cerevisiae BY4742 containing Aspergillus fumigatus fks1617-649 hybrid after 24 hrs by broth microdilution assay; settings: BY4742, 24 h
[14] = test system: Nakaseomyces glabratus; assay: Antimicrobial activity against Candida glabrata containing FSK2 after 24 hrs by broth microdilution assay

## CC[C@H](C)C[C@H](C)CCCCCCCCC(=O)N[C@H]1C[C@@H](O)[C@@H](NCCN)NC(=O)[C@@H]2[C@@H](O)CCN2C(=O)[C@H]([C@H](O)CCN)NC(=O)[C@H]([C@H](O)[C@@H](O)c2ccc(O)cc2)NC(=O)[C@@H]2C[C@@H](O)CN2C(=O)[C@H]([C@@H](C)O)NC1=O [CASPOFUNGIN]
[1]
  MIC: 0.5 µg/mL (≈ 0.457 µM)
[2]
  MIC: 0.002 µg/mL (≈ 0.00183 µM)
[3]
  MIC: 0.002 µg/mL (≈ 0.00183 µM)
[4]
  MIC: 0.25 µg/mL (≈ 0.229 µM)
[5]
  MIC: 0.008 µg/mL (≈ 0.00732 µM)
[6]
  MIC: 0.25 µg/mL (≈ 0.229 µM)
[7]
  MIC: 0.001 µg/mL (≈ 0.000915 µM)
[8]
  MIC: 0.031 µg/mL (≈ 0.0284 µM)
[9]
  MIC: 0.5 µg/mL (≈ 0.457 µM)
[10]
  MIC: 0.008 µg/mL (≈ 0.00732 µM)
[11]
  MIC: 0.031 µg/mL (≈ 0.0284 µM)
[12]
  MIC: 0.031 µg/mL (≈ 0.0284 µM)
[13]
  MIC: 0.008 µg/mL (≈ 0.00732 µM)
[14]
  MIC: 0.062 µg/mL (≈ 0.0567 µM)

## CCCCCOc1ccc(-c2cc(-c3ccc(C(=O)N[C@H]4C[C@@H](O)[C@@H](O)NC(=O)[C@@H]5[C@@H](O)[C@@H](C)CN5C(=O)[C@H]([C@H](O)CC(N)=O)NC(=O)[C@H]([C@H](O)[C@@H](O)c5ccc(O)c(OS(=O)(=O)O)c5)NC(=O)[C@@H]5C[C@@H](O)CN5C(=O)[C@H]([C@@H](C)O)NC4=O)cc3)no2)cc1 [MICAFUNGIN] (X1-[Orn(4R-OH,5R-OH)]T[Hyp][hTyr(3S-OH,4S-OH,3'-OSO3H)][Gln(3R-OH)][Pro(3S-OH,4S-Me)]; lactam 1-C)
[1]
  MIC: 0.5 µg/mL (≈ 0.394 µM)
[2]
  MIC: 0.062 µg/mL (≈ 0.0488 µM)
[3]
  MIC: 0.062 µg/mL (≈ 0.0488 µM)
[4]
  MIC: 0.25 µg/mL (≈ 0.197 µM)
[5]
  MIC: 0.031 µg/mL (≈ 0.0244 µM)
[6]
  MIC: 0.062 µg/mL (≈ 0.0488 µM)
[7]
  MIC: 0.008 µg/mL (≈ 0.0063 µM)
[8]
  MIC: 0.062 µg/mL (≈ 0.0488 µM)
[9]
  MIC: 0.062 µg/mL (≈ 0.0488 µM)
[10]
  MIC: 0.031 µg/mL (≈ 0.0244 µM)
[11]
  MIC: 0.016 µg/mL (≈ 0.0126 µM)
[12]
  MIC: 0.062 µg/mL (≈ 0.0488 µM)
[13]
  MIC: 0.031 µg/mL (≈ 0.0244 µM)
[14]
  MIC: 0.031 µg/mL (≈ 0.0244 µM)
